Results taken from patent US9365597B2, “Mitochondria-targeted inhibitors of cytochrome c peroxidase for protection from apoptosis” (Brock University, priority 2011, dated 2016).

Key:
C57BL/6NTac female mice [1] = assay: Health of non-irradiated mice after i.p. injection; assay type: in vivo, mouse; settings: i.p. 5 mg per kg body weight, period of study 52 days
cyt c/TLCL = target: T1, cyt c/TLCL (Equus caballus, UniProt P00004); assay: cyt c/H2O2-induced TLCL (tetra-linoleoyl-cardiolipin) peroxidation, ESI-MS; assay type: biochemical; settings: for inhibition of cyt c/H2O2-induced oxidation of TLCL: cyt c 4 μM, TLCL 100 μM, H2O2 80 μM, 10 min, 37° C.; for oxidation of TLCL at ratio of cyt c to compound of 1:20: cyt c:compound 1:20
T1 construct: purchased Sigma (St. Louis, Mo.)
Protocol: For measurement of TLCL oxidation, cyt c (4 μM) was incubated with TLCL (100 μM) containing liposomes (TLCL/cyt c ratio-20:1) and H2O2 (80 μM) for 10 min at 37° C. The reaction was stopped by catalase (150 units/ml) and CL was extracted using Folch procedure^37. Analysis of (hydroperoxy- and hydroxy-) oxidized phospholipid species was performed as described^30. TLCL and its oxidized molecular species were extracted by the Folch procedure^37 and separated on a normal phase column (Luna 3 μm Silica 100A, 150×2 mm, Phenomenex, Torrance Calif.). […] The ESI probe was operated at a voltage differential of 3.5-5.0 kV in the negative ion mode. Capillary temperature was maintained at 150° C. Using range zoom (200-2000 m/z) in negative ion mode, the centroid spectra were acquired.
Small unilamellar liposomes were prepared from dioleoylphosphatidylcholine (DOPC) and TOCL (1:1 ratio) or DOPC and TLCL (4:1 ratio) by sonication in HEPES buffer (20 mM with 100 μM diethylene triamine pentaacetic acid (DTPA) (pH 7.4) 3×60 sec, relaxation time 2 min, 4° C.).

[2] = system: caspase-3 activation in S-100 from mouse embryonic cells; assay: Cell-free apoptosis system (S100): caspase-3 activation by exogenous cyt c/dATP; assay type: biochemical; settings: S100, 1 mM dATP, 1 μM cyt c, 90 min
Protocol: The cytosol extracts (S100) of mouse embryonic cells were obtained as described previously^38 with minor modifications. Briefly, the cells were washed twice in cold phosphate-buffered saline, pH 7.4, and the resulting pellet was resuspended in buffer containing 25 mM HEPES-KOH, pH 7.0, 10 mM KCl, 1.5 mM MgCl2, 1 mM EDTA, 1 mM EGTA, 1 mM DTT, 0.1 mM phenylmethylsulfonyl fluoride, 0.05% digitonin, and 1% protease inhibitor mixture for 2 min at 4° C. Cells were centrifuged at 4° C. for 10 min at 10,000×g. The resulting supernatant was further centrifuged at 4° C. for 50 min at 100,000×g. The supernatant was collected as S-100 and kept at −80° C. until further use. For caspase-3 activation, S100 (5 μg of protein/μl) was incubated with 1 mM dATP and 1 μM cyt c for 90 min at 37° C. The caspase-3 activity was evaluated using Enzchek caspase-3 assay kit as described in the manufacturer's manual (Invitrogen, Carlsbad, Calif.).

C57BL/6NTac female mice [3] = assay: Survival of mice after 9.25 Gy total body irradiation, linear accelerator; assay type: in vivo, mouse; settings: for Overall Survival (52 days): p versus irradiated mice / Survival Over First 20 Days: p versus irradiated mice: log-rank
Protocol: C57BL/6NTac female mice were exposed to total body irradiation to a dose of 9.25 Gy using a linear accelerator (n=10-23 mice per group). The mice were injected i.p. with TPP-IOA (5 mg per kg body weight in 100 μl of water containing 25% ethanol) at 1 h or 10 min before irradiation or 10 min, 5 or 24 h after irradiation. Mice exposed to: total body irradiation at the dose of 9.25 Gy only (black circles); to total body irradiation at the dose of 9.25 Gy and injected with TPP-IOA (5 mg per kg body weight) 10 min (grey circles), 5 h (downward-pointing triangles) and 24 h (lower grey squares) thereafter. Mice injected with TPP-IOA (5 mg per kg body weight) 10 min (upper grey squares) and 1 h (upward-pointing triangles) before total body irradiation (9.25 Gy).
C57BL/6NTac female mice were anaesthetized with Nembutal (1 mg per 20 g mouse), irradiated to a total body dose of 9.25 Gy using either a Shepherd Mark 1 Model 68 cesium irradiator at a dose rate of 80 cGy min^−1 (31-35 mice per group) or a Varian TrueBeam linear accelerator (Varian Medical Systems) at 100 monitor units or 100 cGy min^−1 using 6 MV photons with a 40 cm×40 cm field at 100 SSD (10-23 mice per group). Mice were injected intraperitoneally (i.p.) with 5 mg per kg body weight of TPP-IOA in a 100 μl volume of water containing 25% ethanol at 1 h before irradiation, 10 min before irradiation, 10 min after irradiation, 5 h after irradiation and 24 h after irradiation. Other groups were injected i.p. with 2.5 mg per kg body weight of TPP-IOA or 5 mg per kg body weight of TPP-ISA 10 min after irradiation. The mice were followed for the development of haematopoietic syndrome (at which time they were killed).
The log-rank test was used for three analyses: the comparison of overall survival that is defined as the time from the date of radiation to the date of death for all mice under study; the comparison of short-term survival over the first 20 days, that is, the overall survival count at 20 days; and the comparison of conditional survival in mice surviving 20 or more days, that is, the time from the date of radiation to the date of death for all mice who survived 20 days or longer after radiation. All these comparisons were made between each of the treated groups and the radiation-only control group.

mouse embryonic cells [4] = assay: ATP levels in mouse embryonic cells (bioluminescent kit); assay type: cell-based
Protocol: ATP levels in cells were measured using ATP bioluminescent somatic cell assay kit (St. Louis, Mo.) according to the manufacturer's instructions.

mouse embryonic cells [5] = assay: Clonogenic survival of mouse embryonic cells after γ-irradiation; assay type: cell-based; settings: 2.5 μM added 30 min post γ-irradiation; single-hit multi-target model; untreated 1.33±0.08
Protocol: Cells were plated in 35-mm dishes with 2 ml culture medium at the appropriate density (between 100 and 1000 cells per dish). TPP-ISA (2.5 μM) or TPP-IOA (2.5 μM) was added to the cell culture 30 min post γ-irradiation. Medium containing TPP-ISA or TPP-IOA was replaced with fresh complete culture medium after 4 hrs. Colonies were fixed and stained with 0.25% crystal violet and 10% formalin (35% v/v) in 80% methanol for 30 min after a 7-day incubation, and those with >50 cells were scored as survivors. The surviving fraction was calculated as the plating efficiency (=number of colonies counted/number of cells seeded×100%) of samples relative to that of control. The data were fitted to a single-hit multi-target model. D0—the dose needed to reduce cell surviving fraction to 37% (1/e)—was estimated from the curves fitted to evaluate the radiomitigative effects of TPP-ISA and TPP-IOA.

C57BL/6NTac female mice [6] = assay: Survival of mice after 9.25 Gy total body irradiation, cesium irradiator; assay type: in vivo, mouse; settings: for radiomitigative effect (survival): i.p. 5 mg per kg, 10 min after irradiation
mouse embryonic cells [7] = assay: Superoxide production in mouse embryonic cells (dihydroethidium, flow cytometry); assay type: cell-based; settings: cells with or without radiation treatment (10 Gy); 2.5 and 5 μM, 18 hrs
Protocol: Cells were γ-irradiated at a dose of 10 Gy and then incubated with different concentrations of TPP-IOA or TPP-ISA (2.5 and 5 μM) for 18 hrs. To estimate superoxide generation, cells were incubated with 5 μM of dihydroethidium (DHE) for 30 min at 37° C. Collected cells were re-suspended in phosphate buffered saline (PBS) and fluorescence of 2-hydroxyethidium was analyzed using FACScan supplied with CellQuest software. Data are means±S.D., n=3. *p<0.01 vs. control cells (without any treatment).
A superoxide-meditated oxidation-sensitive fluorogenic dye, dihydroethidium (DHE), was utilized for assessments of superoxide production. Briefly, cells were incubated with 5 μM of DHE for 30 min. Cells were collected by trypsinization and re-suspended in PBS. The fluorescence of 2-hydroxyethidium was measured using a FACScan flow cytometer (BD Biosciences, San Jose, Calif.) supplied with the CellQuest software. Mean fluorescence intensity from 10,000 cells was acquired using a 585/42-nm band-pass filter.

[8] = 2.5 mg/kg body weight i.p., 10 min after 9.25 Gy
[9] = 5 mg/kg body weight i.p., 10 min after 9.25Gy
[10] = 5 mg/kg body weight i.p., 10 min before 9.25Gy
[11] = 5 mg/kg body weight i.p., 1 hr before 9.25Gy
[12] = 5 mg/kg body weight i.p., 5 hr after 9.25Gy
[13] = 5 mg/kg body weight i.p., 24 hr after 9.25Gy

T1 sequence (P00004 2-105 limits assumed): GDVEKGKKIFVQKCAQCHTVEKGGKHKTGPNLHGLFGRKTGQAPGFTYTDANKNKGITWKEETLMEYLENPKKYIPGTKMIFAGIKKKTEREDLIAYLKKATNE

SMILES | adverse side effects in non-irradiated mice (C57BL/6NTac female mice [1]) | inhibition of cyt c/H2O2-induced oxidation of TLCL (cyt c/TLCL) | oxidation of TLCL at ratio of cyt c to compound of 1:20 (cyt c/TLCL) | caspase activation caused by exogenously added cyt c [2] | Overall Survival (52 days): p versus irradiated mice (C57BL/6NTac female mice [3]; [9]) | Survival Over First 20 Days: p versus irradiated mice (C57BL/6NTac female mice [3]; [9]) | effect on ATP levels (mouse embryonic cells [4]) | D0, the dose needed to reduce cell surviving fraction to 37% (1/e) (mouse embryonic cells [5]) | radiomitigative effect (survival) (C57BL/6NTac female mice [6]) | effect on superoxide production (mouse embryonic cells [7]) | also measured
CCCCCCC(C/C=C\CCCCCCCC(=O)OCCC[P+](c1ccccc1)(c1ccccc1)c1ccccc1)n1ccnc1.[Br-] (stereo not shown) [TPP-IOA] | no adverse side effects were noticed | inhibited cyt c/H2O2-induced oxidation of TLCL in a concentration-dependent manner | completely blocked | completely insensitive | <0.0001 | <0.0001 | Neither TPP-IOA nor TPP-ISA had any effect | 1.71±0.05 | strong radiomitigative effect | neither TPP-IOA nor TPP-ISA had any effect | mitigating the mice against irradiation, lower dose (C57BL/6NTac female mice [3]; 2.5 mg per kg body weight, 10 min after irradiation): not effective; Overall Survival (52 days): Median Survival (95% Confidence Interval) (C57BL/6NTac female mice [3]; [8]): 17 (14, —) days; Survival Over First 20 Days: Median Survival (95% Confidence Interval) (C57BL/6NTac female mice [3]; [8]): 17 (14, —) days; Overall Survival (52 days): p versus irradiated mice (C57BL/6NTac female mice [3]; [8]): 0.0525; Survival Over First 20 Days: p versus irradiated mice (C57BL/6NTac female mice [3]; [8]): 0.0525; survival when given at later time points after irradiation (C57BL/6NTac female mice [3]; 5 mg per kg, 5 or 24 h after irradiation): significant increase in survival; protection when given before irradiation (C57BL/6NTac female mice [3]; 5 mg per kg, 10 min or 1 h before irradiation): protective; Overall Survival (52 days): Median Survival (95% Confidence Interval) (C57BL/6NTac female mice [3]; [9]): — (—, —); Survival Over First 20 Days: Median Survival (95% Confidence Interval) (C57BL/6NTac female mice [3]; [9]): — (—, —); Overall Survival (52 days): p versus irradiated mice (C57BL/6NTac female mice [3]; [10]): 0.0009; Survival Over First 20 Days: p versus irradiated mice (C57BL/6NTac female mice [3]; [10]): 0.0009; Overall Survival (52 days): p versus irradiated mice (C57BL/6NTac female mice [3]; [11]): 0.0230; Survival Over First 20 Days: p versus irradiated mice (C57BL/6NTac female mice [3]; [11]): 0.0230; Overall Survival (52 days): p versus irradiated mice (C57BL/6NTac female mice [3]; [12]): 0.0030; Survival Over First 20 Days: p versus irradiated mice (C57BL/6NTac female mice [3]; [12]): 0.0030; Overall Survival (52 days): Median Survival (95% Confidence Interval) (C57BL/6NTac female mice [3]; [13]): 18 (13, —) days; Survival Over First 20 Days: Median Survival (95% Confidence Interval) (C57BL/6NTac female mice [3]; [13]): 18 (13, —) days; Overall Survival (52 days): p versus irradiated mice (C57BL/6NTac female mice [3]; [13]): 0.0416; Survival Over First 20 Days: p versus irradiated mice (C57BL/6NTac female mice [3]; [13]): 0.0416; P (two-sided log-rank test), TPP-IOA versus TPP-ISA (C57BL/6NTac female mice [6]; 5 mg per kg 10 min after irradiation): 0.6389
CCCCCCC(CCCCCCCCCCC(=O)OCCC[P+](c1ccccc1)(c1ccccc1)c1ccccc1)n1ccnc1.[Br-] (stereo not shown) [TPP-ISA] | no adverse side effects were noticed | inhibited cyt c/H2O2-induced oxidation of TLCL in a concentration-dependent manner | completely blocked | completely insensitive | 0.0114 | 0.0114 | Neither TPP-IOA nor TPP-ISA had any effect | 1.67±0.06 | strong radiomitigative effect | neither TPP-IOA nor TPP-ISA had any effect | 
